Converted amounts (≈) assume the structure as drawn. *1 amine or outer side, *2 acyl side, *3 side chain or, on linkers, in order; H or OH if unused. Where a SMILES comes first, the peptide text is derived from it. Bridges are numbered along the chain shown (N, C = ends). [ ]: non-standard residue; d: D form. The star is where a group is joined. hTyr(3S-OH,4S-OH,3'-OSO3H) = N[C@H](C(=O)O)[C@H](O)[C@@H](O)c1ccc(O)c(OS(=O)(=O)O)c1; pTerphenylCO(4''-OnC5H11) = CCCCCOc1ccc(-c2ccc(-c3ccc(C(=O)*)cc3)cc2)cc1; Orn(4R-OH,5R-OH) = O=C([C@H](C[C@@H](O)[C@@H](O)N[*:3])N[*:1])[*:2]; hTyr(3S-OH,4S-OH) = N[C@H](C(=O)O)[C@H](O)[C@@H](O)c1ccc(O)cc1; Pro(3S-OH,4S-Me) = C[C@H]1CN[C@H](C(=O)O)[C@H]1O; X1 = CCCCCOc1ccc(-c2cc(-c3ccc(C(=O)*)cc3)no2)cc1; Gln(3R-OH) = NC(=O)C[C@@H](O)[C@H](N)C(=O)O; Hyp = O=C(O)[C@@H]1C[C@@H](O)CN1
Tests used:
Type in all cases: functional
Nakaseomyces glabratus [1] = test: Antifungal activity against Candida glabrata 06-3169 harboring […] T1896G and D632E mutant obtained from patient on compound therapy by M27-A2 method
Nakaseomyces glabratus [2] = test: Antifungal activity against Candida glabrata 06-3170 harboring […] T1896G and D632E mutant obtained from patient on compound therapy by M27-A2 method
Nakaseomyces glabratus [3] = test: Antifungal activity against Candida glabrata 06-3168 obtained from patient on compound therapy by M27-A2 method
Pichia kudriavzevii = test: Antifungal activity against Candida krusei obtained from patient with acute myeloid leukemia

Row | Structure (SMILES) | MIC (Nakaseomyces glabratus [1]) | MIC (Nakaseomyces glabratus [2]) | MIC (Nakaseomyces glabratus [3]) | MIC (Pichia kudriavzevii)
1 | C[C@@H]1[C@H](O)[C@@H](C)/C=C/C=C/C=C/C=C/C=C/C=C/C=C/[C@H](O[C@@H]2O[C@H](C)[C@@H](O)[C@H](N)[C@@H]2O)C[C@@H]2O[C@](O)(C[C@@H](O)C[C@@H](O)[C@H](O)CC[C@@H](O)C[C@@H](O)CC(=O)O[C@H]1C)C[C@H](O)[C@H]2C(=O)O [AMPHOTERICIN B] | 0.125 µg/mL (≈ 0.135 µM) | 0.125 µg/mL (≈ 0.135 µM) | 0.125 µg/mL (≈ 0.135 µM) | –
2 | CCCCCOc1ccc(-c2ccc(-c3ccc(C(=O)N[C@H]4C[C@@H](O)[C@@H](O)NC(=O)[C@@H]5[C@@H](O)[C@@H](C)CN5C(=O)[C@H]([C@@H](C)O)NC(=O)[C@H]([C@H](O)[C@@H](O)c5ccc(O)cc5)NC(=O)[C@@H]5C[C@@H](O)CN5C(=O)[C@H]([C@@H](C)O)NC4=O)cc3)cc2)cc1 [ANIDULAFUNGIN] ({pTerphenylCO(4''-OnC5H11)}-[Orn(4R-OH,5R-OH)]T[Hyp][hTyr(3S-OH,4S-OH)]T[Pro(3S-OH,4S-Me)]; lactam 1-C) | > 2 µg/mL | > 2 µg/mL | 0.03 µg/mL (≈ 0.0263 µM) | –
3 | CC[C@H](C)C[C@H](C)CCCCCCCCC(=O)N[C@H]1C[C@@H](O)[C@@H](NCCN)NC(=O)[C@@H]2[C@@H](O)CCN2C(=O)[C@H]([C@H](O)CCN)NC(=O)[C@H]([C@H](O)[C@@H](O)c2ccc(O)cc2)NC(=O)[C@@H]2C[C@@H](O)CN2C(=O)[C@H]([C@@H](C)O)NC1=O [CASPOFUNGIN] | > 2 µg/mL | > 2 µg/mL | 0.06 µg/mL (≈ 0.0549 µM) | 2 µg/mL (≈ 1.83 µM)
4 | OC(Cn1cncn1)(Cn1cncn1)c1ccc(F)cc1F [FLUCONAZOLE] | 1 µg/mL (≈ 3.27 µM) | 1 µg/mL (≈ 3.27 µM) | 1 µg/mL (≈ 3.27 µM) | –
5 | CCCCCOc1ccc(-c2cc(-c3ccc(C(=O)N[C@H]4C[C@@H](O)[C@@H](O)NC(=O)[C@@H]5[C@@H](O)[C@@H](C)CN5C(=O)[C@H]([C@H](O)CC(N)=O)NC(=O)[C@H]([C@H](O)[C@@H](O)c5ccc(O)c(OS(=O)(=O)O)c5)NC(=O)[C@@H]5C[C@@H](O)CN5C(=O)[C@H]([C@@H](C)O)NC4=O)cc3)no2)cc1 [MICAFUNGIN] (X1-[Orn(4R-OH,5R-OH)]T[Hyp][hTyr(3S-OH,4S-OH,3'-OSO3H)][Gln(3R-OH)][Pro(3S-OH,4S-Me)]; lactam 1-C) | > 2 µg/mL | > 2 µg/mL | 0.06 µg/mL (≈ 0.0472 µM) | –
6 | C[C@@H](c1ncncc1F)[C@](O)(Cn1cncn1)c1ccc(F)cc1F [VORICONAZOLE] | 0.03 µg/mL (≈ 0.0859 µM) | 0.03 µg/mL (≈ 0.0859 µM) | 0.03 µg/mL (≈ 0.0859 µM) | –
